The values that follow come from ChEMBL document CHEMBL4308862, “Discovery of a novel azetidine scaffold for colony stimulating factor-1 receptor (CSF-1R) Type II inhibitors by the use of docking models” (Bioorg Med Chem Lett, 2019).

Each structure is given as a SMILES string.

This assay addresses Macrophage colony-stimulating factor 1 receptor (Homo sapiens, UniProt P07333). The experiment in a line: Inhibition of human CSF1R tyrosine kinase domain (538 to 972 residues) using Poly(Glu, Tyr)-biotinylated peptide as substrate preincubated for 5 mins followed by substrate addition and measured after 10 mins by HTRF assay.

Chain of Macrophage colony-stimulating factor 1 receptor (P07333 whole entry, the tested form may be a part): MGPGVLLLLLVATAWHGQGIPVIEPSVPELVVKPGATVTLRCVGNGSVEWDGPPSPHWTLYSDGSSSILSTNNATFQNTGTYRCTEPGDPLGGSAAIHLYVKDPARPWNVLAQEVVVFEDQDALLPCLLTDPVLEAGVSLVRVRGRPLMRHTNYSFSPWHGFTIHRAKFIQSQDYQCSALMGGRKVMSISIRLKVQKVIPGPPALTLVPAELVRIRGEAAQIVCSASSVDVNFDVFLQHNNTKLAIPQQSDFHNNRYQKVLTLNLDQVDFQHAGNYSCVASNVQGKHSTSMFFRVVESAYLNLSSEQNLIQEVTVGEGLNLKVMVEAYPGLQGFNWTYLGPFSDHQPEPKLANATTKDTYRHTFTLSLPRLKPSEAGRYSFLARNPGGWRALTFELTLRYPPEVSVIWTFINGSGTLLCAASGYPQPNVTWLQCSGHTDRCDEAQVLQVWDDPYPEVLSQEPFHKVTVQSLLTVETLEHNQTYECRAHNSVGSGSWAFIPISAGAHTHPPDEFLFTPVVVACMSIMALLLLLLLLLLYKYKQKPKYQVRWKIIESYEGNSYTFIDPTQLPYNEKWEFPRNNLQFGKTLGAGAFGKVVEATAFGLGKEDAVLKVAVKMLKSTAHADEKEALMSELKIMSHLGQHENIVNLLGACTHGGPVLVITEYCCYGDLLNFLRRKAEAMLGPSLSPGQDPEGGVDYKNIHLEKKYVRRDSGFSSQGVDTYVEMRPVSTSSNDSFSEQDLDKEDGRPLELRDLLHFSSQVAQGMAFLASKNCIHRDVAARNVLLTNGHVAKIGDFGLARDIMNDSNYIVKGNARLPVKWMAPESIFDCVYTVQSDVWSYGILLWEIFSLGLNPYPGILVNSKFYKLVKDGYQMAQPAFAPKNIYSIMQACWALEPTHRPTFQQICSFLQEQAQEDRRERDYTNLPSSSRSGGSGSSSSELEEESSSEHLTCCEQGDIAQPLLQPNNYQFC

By IC50 is commonly meant the concentration that inhibits the measured activity by half. `CCc1ccc(COc2ccc(C3CN(Cc4ccccn4)C3)cc2OC)cc1` came in with an IC50 greater than 3 µM. For `CCc1ccc(COc2ccc(C3CN(c4ccccn4)C3)cc2OC)cc1`, the IC50 was greater than 3 µM. The molecule `CCc1ccc(COc2ccc(C3CN(Cc4cccnc4)C3)cc2OC)cc1` gave an IC50 greater than 3 µM.
